Assays:
lacR = lacR (Escherichia coli, UniProt P03023); assay: sensing a lactose analog (IPTG) using DNA biosensors (lacR-dependent DNA coincidence); type: binding, bacteria
Source text: An example of sensing the concentration of a small molecule using protein-dependent DNA coincidence. In the absence (or low concentration) of the molecule to be sensed (yellow triangle), the transcription factor binds to DNA with high affinity and gives rise to DNA coincidence detected by single-molecule fluorescence.
FIG. 16. Sensing a lactose analog (IPTG) using DNA biosensors. […] A plot of the number of molecules with intermediate stoichiometry can be used as a calibration curve to identify the concentration of the small molecule, provided that the concentration is not much higher or much lower than the Kd for the interaction of the small molecule with the DNA-binding protein.

lac repressor (lacR) = lac repressor (lacR) (Escherichia coli, UniProt P03023); assay: Sensing a lactose analog (IPTG) using DNA biosensors: IPTG-dependent loss of lacR-assembled full DNA site, detected by single-molecule fluorescence (protein-dependent DNA coincidence); type: binding, bacteria; conditions: FIG. 16; IPTG interaction with lacR (tetrameric bacterial repressor); fraction of bursts with intermediate stoichiometry vs IPTG concentration
Sequence of lac repressor (lacR) (P03023 whole entry): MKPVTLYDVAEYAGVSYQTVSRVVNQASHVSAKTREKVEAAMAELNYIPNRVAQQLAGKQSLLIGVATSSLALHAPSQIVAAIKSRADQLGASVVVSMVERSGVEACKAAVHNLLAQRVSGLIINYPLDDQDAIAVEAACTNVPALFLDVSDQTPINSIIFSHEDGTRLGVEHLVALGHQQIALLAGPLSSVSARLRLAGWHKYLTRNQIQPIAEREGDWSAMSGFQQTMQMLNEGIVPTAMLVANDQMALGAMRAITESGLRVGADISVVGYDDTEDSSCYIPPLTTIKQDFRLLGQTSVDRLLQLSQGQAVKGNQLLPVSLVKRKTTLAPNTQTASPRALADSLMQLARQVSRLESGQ
Source text: For the purposes of our assay, the fluorophores can be placed far from the protein binding site (as long as the fluorophores are spaced by less than approximately 200 base pairs); as such, there is no perturbation of protein-DNA binding and no information about the exact structure of the protein-DNA complex is necessary. The concept is described in FIG. 3. In the absence of a DNA-binding protein, for example, a dimeric protein, such as a dimeric transcription factor, two DNA fragments with short and complementary single-stranded DNA tails diffuse independently in solution (top panel). In the presence of a DNA-binding protein that binds specifically to the fully assembled DNA site, the two DNA fragments diffuse as a single molecular complex (a 1:1 donor-acceptor species); such a species can be easily differentiated from the free DNA half-sites and can be counted, giving information about the concentration of the specific DNA-binding protein. […]
An example of sensing the concentration of a small molecule using protein-dependent DNA coincidence. In the absence (or low concentration) of the molecule to be sensed (yellow triangle), the transcription factor binds to DNA with high affinity and gives rise to DNA coincidence detected by single-molecule fluorescence. […]

Sequence of lacR (P03023 whole entry): as above

## CC(C)S[C@@H]1O[C@H](CO)[C@H](O)[C@H](O)[C@H]1O [IPTG]
lacR; high concentration of IPTG, relative fraction of bursts with intermediate stoichiometry decreases
  lacR assembly of the full DNA site: does not assemble the full site
lacR; low concentration of IPTG, relative fraction of bursts with intermediate stoichiometry increases
  lacR assembly of the full DNA site: does bind and assemble the full site
Lac repressor (lacR)
  Kd: 1000 to 2000 nM

— US20100216249A1, “DNA-Based Biosensors” (ISIS INNOVATION LIMITED, priority 2007, published 2010)
